Each structure is given as a SMILES string.

One may read the IC50 as the concentration that gives 50% inhibition.

The test system of data set [1] is SW837. The data set can be described thus: Antiproliferative activity against human SW837 cells assessed as cell growth inhibition measured after 48 hrs by MTT assay. The class given is functional, cell-based. Conditions: SW837, 48 h.
Data set [2] relates to HT-29. Put plainly: Antiproliferative activity against human HT-29 cells assessed as cell growth inhibition measured after 48 hrs by MTT assay. It is filed as functional, cell-based. Conditions: HT-29, 48 h. (In general: Tetrazolium assays rely on reduction of a dye to a coloured formazan, in cell work by metabolically active cells.)
Data set [3] relates to MDA-MB-231. The data set can be described thus: Antiproliferative activity against human MDA-MB-231 cells assessed as cell growth inhibition measured after 48 hrs by MTT assay. It is filed as functional, cell-based. The following applies: MDA-MB-231, 48 h.
Data set [4] deals with HCT-116. The data set can be described thus: Antiproliferative activity against human HCT-116 cells assessed as cell growth inhibition measured after 48 hrs by MTT assay. It is filed as functional, cell-based. The following applies: HCT-116, 48 h.
Data set [5] can be described thus: Anticancer activity against human CLS-354 cells assessed as cell growth inhibition measured after 24 hrs by MTT assay. The class given is functional, cell-based. The following applies: CLS-354, 24 h.
Data set [6] is described as follows: Anticancer activity against cisplatin/camptothecin resistant human CLS-354 cells assessed as cell growth inhibition measured after 24 hrs by MTT assay. The class given is functional, cell-based. Conditions: CLS-354, 24 h.
Data set [7] can be described thus: Potency index, ratio of cisplatin IC50 to compound IC50 for anticancer activity against cisplatin/camptothecin resistant human CLS-354 cells by MTT assay. It is filed as functional.
Data set [8] deals with MCF7. Put plainly: Cytotoxicity against human MCF7 cells assessed as cell growth inhibition measured after 48 hrs by MTT assay. The class given is functional, cell-based. The following applies: MCF7, 48 h.
Data set [9] deals with MCF7. The data set can be described thus: Potency index, ratio of Doxorubicin IC50 to compound IC50 for cytotoxicity against human MCF7 cells by MTT assay. It is filed as functional.
Data set [10] can be described thus: Cytotoxicity against human Kidney epithelial cells assessed as cell growth inhibition measured after 24 hrs by XTT assay. It is filed as toxicity, cell-based.
Data set [11] deals with HeLa. The data set can be described thus: Cytotoxicity against human HeLa cells assessed as cell growth inhibition by MTT assay. It is filed as functional, cell-based.
Data set [12] concerns HCT-116. Put plainly: Antitumor activity against human HCT-116 cells xenografted in BALB/c nu/nu mouse assessed as reduction in tumor volume at 100 mg/kg/day, ip administered for 20 days measured by caliper relative to control. The following applies: time 20 day. Also noted: scale not given: the % may be the effect or the level left. It is filed as functional. (In general: Xenograft models place foreign cells or tissue in a host animal.)

The test system of data set [13] is A549. Put plainly: Antiproliferative activity against human A549 cells assessed as cell growth inhibition measured after 48 hrs by MTT assay. Conditions: A549, 48 h. It is filed as functional, cell-based.
Data set [14] relates to MCF7. The data set can be described thus: Antiproliferative activity against human MCF7 cells assessed as cell growth inhibition measured after 48 hrs by MTT assay. The class given is functional, cell-based. Conditions: MCF7, 48 h.
A short description of data set [15]: Cytotoxicity against human HUVEC cells assessed as cell growth inhibition measured after 48 hrs by MTT assay. The class given is toxicity, cell-based.
Data set [16] deals with MDA-MB-231. The data set can be described thus: Cytotoxicity against human MDA-MB-231 cells assessed as cell growth inhibition measured after 48 hrs by MTT assay. The class given is functional, cell-based. The following applies: MDA-MB-231, 48 h.
Data set [17] concerns HeLa. Put plainly: Cytotoxicity against human HeLa cells assessed as cell growth inhibition measured after 48 hrs by MTT assay. It is filed as functional, cell-based.
Data set [18] has as its system Hep 3B2. Put plainly: Cytotoxicity against human Hep3B cells assessed as cell growth inhibition measured after 48 hrs by MTT assay. The class given is functional, cell-based.
The test system of data set [19] is SMMC-7721. The data set can be described thus: Cytotoxicity against human SMMC-7721 cells assessed as cell growth inhibition measured after 48 hrs by MTT assay. It is filed as functional, cell-based. The following applies: SMMC-7721, 48 h.
For data set [20], the system named is HepG2. The data set can be described thus: Cytotoxicity against human HepG2 cells assessed as cell growth inhibition measured after 48 hrs by MTT assay. It is filed as functional, cell-based. Conditions: HepG2, 48 h.
A short description of data set [21]: Cytotoxicity against human QSG7701 cells assessed as cell growth inhibition measured after 48 hrs by MTT assay. The class given is toxicity, cell-based.
Data set [22] relates to A549. Put plainly: Antitumour activity against human A549 cells xenografted in mouse assessed as reduction in tumor volume at 3 mg/kg relative to control. It is filed as functional. Details: scale not given: the % may be the effect or the level left.
The test system of data set [23] is NCI-H1299. Put plainly: Cytotoxicity against human NCI-H1299 cells assessed as cell growth inhibition by Trypan blue staining based analysis. The class given is functional. Conditions: pooled result: one value given for 6 cell lines, strains, targets or settings.
Data set [24] relates to AGS. The data set can be described thus: Antiproliferative activity against human AGS cells assessed as cell growth inhibition measured after 72 hrs by MTT assay. The class given is functional, cell-based.
The test system of data set [25] is SGC-7901. Put plainly: Antiproliferative activity against human SGC-7901 cells assessed as cell growth inhibition measured after 72 hrs by MTT assay. The following applies: SGC-7901, 72 h. It is filed as functional, cell-based.

Regarding `Oc1cc2[nH]c3ccccc3c2cc1CN1CCCCC1`, the IC50 in data set [1] stood at 16 µM; in data set [2] it was 18 µM; in [3], 16 µM; in data set [4], 18 µM.

Take `CC(C)=CCC[C@@]1(C)C=Cc2c(ccc3c2[nH]c2cc(O)c(C)cc23)O1`: the half-inhibitory concentration (IC50) in [5] turned out to be 14.4 µM; in [6], 16 µM. The “Ratio IC50” value in data set [7] was 2.1.

On to `N#CC1=C(N)Oc2ccc3c([nH]c4ccccc43)c2C12C(=O)N(Cc1cn(Cc3ccc([N+](=O)[O-])cc3)nn1)c1ccccc12` (stereo unspecified), for which the IC50 in data set [8] was found to be 2.13 µM. For the same molecule, in [9], the “Ratio IC50” value was 2.1.

Turning to `CN(C)CCCNC(=O)c1ccc(-n2cc(-c3ccc4c(c3)c3ccccc3n4CCCN(C)C)nn2)cc1`, the IC50 at 24 h in data set [10] was greater than 30 µM.

In the case of `CCn1c2ccccc2c2cc(/C=N/NC(=O)c3ccccc3Cl)ccc21`, in [11], the half-maximal inhibitory concentration (IC50) was found to be 3.12 µM. For the same molecule, the Activity in [12] is recorded as 35%.

With `Cn1c2ccccc2c2cc(C3NCCc4c3[nH]c3ccccc43)ccc21` (stereo unspecified), the IC50 amounted to 5.04 µM in [13] and 5.48 µM in data set [14].

Turning to `CCCCCn1cc(CN2C(=O)C3(C(C#N)=C(N)Oc4ccc5c([nH]c6ccccc65)c43)c3ccccc32)nn1` (stereo unspecified), the IC50 in [8], in data set [16] and in [17] was 4.8 µM in each case. Also, in data set [15], the IC50 at 48 h was determined as 4.8 µM.

In the case of `CCOc1ccc2c(c1)c1c(n2CCN2CCNCC2)-c2cc(C(C)C)ccc2[C@@]2(C)CCC[C@@](C)(C(=O)OC)C12` (stereo partly specified), the half-maximal inhibitory concentration (IC50) in data set [18], in [19] and in [20] was 0.51 µM in each case. Moreover, in data set [21], the 50% inhibitory concentration (IC50) at 48 h came to 12.5 µM.

As for `CCn1c2ccccc2c2cc(NC(=O)NCCN3CCN(C(=O)c4ccco4)CC3)ccc21`, in [22], the Activity is recorded as 65%. Also, the IC50 in [23] was 1.78 µM.

In the case of `N=C(N)N/N=C/c1ccc2c(c1)c1ccccc1n2Cc1ccccc1F`, the IC50 in data set [24] was 0.4 µM; in data set [25], 1.5 µM.

These data come from ChEMBL document CHEMBL5126512, “Current status of carbazole hybrids as anticancer agents” (Eur J Med Chem, 2022).
